# How the values were obtained:
# [1] = cited from earlier work
# [2] = system: IL-8 secretion in Calu-3 cells; experiment: IL-8 in basolateral supernatants of Calu-3 cells (ELISA); type: cell-based; conditions: for inhibition of secreted IL-8: Calu-3 cells stimulated with Salmonella, 30 μM test compound, 5 hours, FIG. 4
# Procedure: Calu-3 cells were plated at subconfluency onto Costar inserts (3.0 μm membrane pore size) using standard techniques. After 24 hours, the apical well media was aspirated, and the Calu-3 cells were permitted to grow at the air/media interface. Basolateral media was changed every 2-3 days until they had grown into confluent monolayers (typically 7-10 days). Pathogenic Salmonella typhi were grown in Luria's both overnight at 37° C. (on the night prior to experimentation). The bacteria were washed twice in approximately 20 ml Hanks Balanced Salt Solution (HBSS). Prior to use, bacteria were spun down and resuspended in a total of 10 ml HBSS.
# On the day of experimentation, inserts were washed in HBSS and placed into wells containing HBSS with either vehicle (0.0015% ethanol) or 30 μM of specific imidazole or non-imidazole containing test compound (all compounds were diluted from 20 mM working stock). 200 μL of bacteria were then loaded onto the apical compartment, and the cells were allowed to incubate for 5 hours. The basolateral buffer solutions from each insert were subsequently aspirated into eppendorfs and stored at −20° C. Calu-3 filters were cut and rotated for 30 minutes in 250 μL of lysis buffer [10 mL of PBS containing 1 Complete Protease Inhibitor Cocktail Tablet (Roche Pharmaceuticals) tablet and […]] at 4° C., spun at 14,000 for 20 minutes, and the clarified supernatant was stored at −20° C. Supernatant and lysate IL-8 protein content was measured by ELISA using standard techniques.
# [3] = system: fecal lactoferrin, a marker of white blood cell excretion (PMN transmigration); experiment: Fecal lactoferrin in pouchitis patients treated with CLT suppositories; type: in vivo, human; conditions: in 6 of 8 subjects studied; rectal suppository
# Procedure: (§1) In this study, subjects were treated with escalating doses of study drug: Step A (500 mg rectal suppositories applied twice daily); Step B (750 mg rectal suppositories applied twice daily); Step C (1,500 mg delivered twice daily). Few parameters were measured including fecal lactoferrin, a marker of white blood cell excretion, to assess the effects of topical CLT therapy on PMN transmigration in patients with pouchitis. This assay has been previously validated as a quantitative biochemical measure of PMN transmigration in patients with infectious colitis and inflammatory bowel disease.
# [4] = cited from earlier work; remark: listed apart in the source
# [5] = Serum CLT levels after rectal CLT suppositories (HPLC assay); type: in vivo, human
# Procedure: (§2) The safety and efficacy of topical CLT therapy was also evaluated (delivered as a rectal suppository) in pediatric and adult patients with active pouchitis. In this study, subjects progressed through three escalating dosing levels: Step A (500 mg rectal suppositories applied twice daily); Step B (750 mg rectal suppositories applied twice daily); Step C (1,500 mg delivered twice daily). Serum levels (measured using a previously validated HPLC assay) were obtained within 3 to 6 hours after administering the morning (8 AM) dose of CLT and are presented in Table 2.
# [6] = system: pediatric and adult patients with active pouchitis; experiment: Safety and clinical outcome of rectal CLT suppositories, open-labeled dose escalating trial; type: in vivo, human
# Procedure: as §2
# Rectal CLT delivered as a suppository, toxicity.
# as §1
# [7] = cited from earlier work; remark: listed apart in the source
# [8] = oral CLT, experimental animals; cited from earlier work
# [9] = system: human PMN transmigration across intestinal T84 cell monolayers; experiment: PMN transmigration across intestinal T84 cell monolayers (in-vitro model of colitis); type: cell-based; conditions: for attenuation of PMN transepithelial migration: FIG. 2A, 2B
# Text: Recruitment of polymorphonuclear neutrophils (PMN's) across intestinal epithelia and into the lumen, resulting in mucosal ulcerations or frank crypt abscesses, occurs in a broad spectrum of infectious, inflammatory, and allergic diarrheal states, including patients with inflammation of surgically constructed ileal reservoirs (“pouchitis”). The transmigration of PMN's across the epithelial barrier represents the pathognomonic feature of acute and active chronic intestinal inflammation. Since CLT has been previously shown to inhibit PMN chemotaxis in-vitro, this study tested if CLT may also be efficacious in attenuating PMN transmigration in an established in-vitro model of colitis using intestinal T84 cell monolayers.
# The efficacy of CLT was compared to other antibiotic (metronidazole) and steroid (prednisone) agents that currently represent the standards of care for the topical or systemic therapy of pouchitis. […] […] As such, topical CLT treatment represents an attractive alternative for patients whose pouchitis disease has proven to be refractory to standard antibiotic or anti-inflammatory regimens. CLT may inhibit PMN transmigration by inhibiting the operation of plasma membrane K^+ or Ca^++ channels that are likely required to accommodate the volume changes necessary for PMN transmigration through epithelial intercellular tight junctions.
# [10] = Safety laboratory data for CLT retention enemas; type: in vivo, human; conditions: change from baseline; retention enemas daily 3500-4000 mg; n=9
# Procedure: In addition to efficacy data, safety data was also gathered for the use of CLT in retention enemas administered daily in a dose of 3500-4000 mg in the same group of patients. The following parameters were measured: urea nitrogen, Creatinine, aspartate aminotransferase (AST or SGOT), alanine aminotransferase (ALT or SGPT), alkaline phosphatase (Alk Phos), Total Bilirubin, Direct Bilirubin, Albumin, and Hematocrit.
# [11] = oral CLT 60-90 mg/Kg body weight/day; cited from earlier work
# [12] = oral CLT; mice, rats, and rabbits; cited from earlier work
# [13] = system: IL-8 within Calu-3 cells; experiment: IL-8 in Calu-3 cell lysates (ELISA); type: cell-based; conditions: FIG. 5
# [14] = system: IL-8 secretion from cultured intestinal (T84) epithelia; experiment: IL-8 secretion from cultured intestinal epithelial T84 cells; type: cell-based; conditions: T84 cells 30 minutes with CLT (30 μM) prior to stimulation with PMA, TNF or Salmonella typhimurium; each agonist; FIG. 3
# Procedure: Intestinal epithelial cells play an active role in the mediation of intestinal inflammation through the production and regulated secretion of a variety of pro-inflammatory cytokines including IL-8. […] In these experiments, cultured intestinal epithelial T84 cells were incubated for 30 minutes with CLT (30 μM) prior to stimulation with either the protein kinase C stimulator PMA, the pro-inflammatory cytokine TNF, or a strain of pathogenic Salmonella typhimurium.
# [15] = after application of one vaginal tablet
# [16] = PMN's and T84 cells incubated with 30 μM of study drug for 30 minutes
structure (smiles),measurement,setting,value
"Clc1ccccc1C(c1ccccc1)(c1ccccc1)n1ccnc1 [CLT, clotrimazole]",serum CLT levels on continued therapy,[1]; after one week of continued daily therapy with oral tablets,seemed to decline
same,adverse effect after first dose,"[1]; normal volunteers, oral CLT in oil form, first dose of 1,000 mg",severe vertigo
same,time to disappearance of all neurological symptoms after discontinuing CLT therapy,"[1]; normal volunteers, oral CLT in oil form",≤ 24 hours
same,inhibition of secreted IL-8,[2],High level of IL-8 inhibition
same,"IL-8 in supernatants, time-course","[2]; at 5 hours, Calu-3 cells pretreated, FIGS. 6 and 7",no IL-8 in the supernatants
same,reduction of PMN excretion (fecal lactoferrin),[3],77%
same,side effects of mucosal preparations,"[4]; 1% vaginal cream, 100 mg and 500 mg tablets",minimal side effects
same,concurrent plasma levels,[4]; [15],lower than 0.01 μg/ml
same,time fungicidal concentrations of CLT detected in vaginal fluid,[4]; [15],up to 3 days
same,central nervous system abnormalities,[4]; topical application of CLT,No central nervous system abnormalities
same,"Serum CLT levels, Step A","[5]; 500 mg rectal suppositories twice daily, 3 to 6 hours after morning dose, one line per subject",below the level of detection
same,systemic absorption from ileal pouches (measured as serum CLT concentration),[5]; rectal suppository,generally poor systemic absorption
same,serum CLT level at the time of renal diagnosis,"[5]; subject two, CLT suppositories",0.08 µM
same,adverse effect of CLT therapy,[6]; subject one,no significant adverse effect
same,changes in urinary sediment or serum BUN or creatinine values,[6]; subjects other than ZP,No other subjects participating in the study demonstrated any significant changes
same,tolerability,"[6]; topical CLT delivered as a rectal suppository, pediatric and adult patients",generally well tolerated
same,serum levels,"[7]; adults, oral dose of 200 mg of CLT",200 to 350 ng/mL
same,drug excreted unchanged in the urine,[7]; oral CLT,only a small fraction
same,route of elimination,[7]; oral CLT,largely in the feces via biliary excretion
same,blood levels in oil solvent relative to tablet forms,"[7]; oral, drug delivered in an oil solvent vs tablet",3-4 times higher
same,"subacute and chronic toxicity, organs involved",[8],liver (degenerative changes) and the adrenal gland (increased fat deposition)
same,time to reversal of liver and adrenal changes after discontinuation of therapy,[8],≤ 6 months
same,attenuation of PMN transepithelial migration,[9]; [16],more potent
same,inhibition of transepithelial migration,"[9]; incubation of T84 monolayers alone with CLT, prior to layering of untreated PMN's, compared with PMN pretreatment, FIG. 1",equal or greater extent
same,PMN transmigration,"[9]; pretreatment of PMN's alone with CLT (30 μM) for 30 minutes, FIG. 1",inhibited significantly
same,"ALBUMIN, Change, MAX",[10],1.1 G/DI
same,"ALBUMIN, Change, MEAN",[10],0.1 G/DI
same,"ALBUMIN, Change, MEDIAN",[10],0.0 G/DI
same,"ALBUMIN, Change, MIN",[10],−0.4 G/DI
same,"ALKALINE PHOSPHATASE, Change, MAX",[10],37.0 U/L
same,"ALKALINE PHOSPHATASE, Change, MEAN",[10],−2.4 U/L
same,"ALKALINE PHOSPHATASE, Change, MEDIAN",[10],1.0 U/L
same,"ALKALINE PHOSPHATASE, Change, MIN",[10],−60.0 U/L
same,"CREATININE, Change, MAX",[10],0.1 mg/dL
same,"CREATININE, Change, MEAN",[10],-0.0 mg/dL
same,"CREATININE, Change, MEDIAN",[10],-0.1 mg/dL
same,"CREATININE, Change, MIN",[10],-0.2 mg/dL
same,"DIRECT BILIRUBIN, Change, MAX",[10],0.1 mg/dL
same,"DIRECT BILIRUBIN, Change, MEAN",[10],-0.0 mg/dL
same,"DIRECT BILIRUBIN, Change, MEDIAN",[10],0.0 mg/dL
same,"DIRECT BILIRUBIN, Change, MIN",[10],-0.1 mg/dL
same,"HEMATOCRIT, Change, MAX",[10],5.9%
same,"HEMATOCRIT, Change, MEAN",[10],−0.5%
same,"HEMATOCRIT, Change, MEDIAN",[10],0.5%
same,"HEMATOCRIT, Change, MIN",[10],−4.7%
same,"SGOT (AST), Change, MAX",[10],8.0 U/L
same,"SGOT (AST), Change, MEAN",[10],−2.2 U/L
same,"SGOT (AST), Change, MEDIAN",[10],−1.0 U/L
same,"SGOT (AST), Change, MIN",[10],−16.0 U/L
same,"SGPT (ALT), Change, MAX",[10],8.0 U/L
same,"SGPT (ALT), Change, MEAN",[10],0.9 U/L
same,"SGPT (ALT), Change, MEDIAN",[10],0.0 U/L
same,"SGPT (ALT), Change, MIN",[10],−6.0 U/L
same,"TOTAL BILIRUBIN, Change, MAX",[10],0.2 mg/dL
same,"TOTAL BILIRUBIN, Change, MEAN",[10],-0.0 mg/dL
same,"TOTAL BILIRUBIN, Change, MEDIAN",[10],0.0 mg/dL
same,"TOTAL BILIRUBIN, Change, MIN",[10],-0.5 mg/dL
same,"UREA NITROGEN (BUN), Change, MAX",[10],4.0 mg/dL
same,"UREA NITROGEN (BUN), Change, MEAN",[10],0.1 mg/dL
same,"UREA NITROGEN (BUN), Change, MEDIAN",[10],0.0 mg/dL
same,"UREA NITROGEN (BUN), Change, MIN",[10],-5.0 mg/dL
same,"patients reporting gastrointestinal complaints (nausea, vomiting, and diarrhea)",[11],13%
same,patients who developed chemical cystitis,[11],4.4%
same,patients who developed contact dermatitis,[11],2.2%
same,patients who found the therapy intolerable,[11],6.5%
same,patients who tolerated CLT therapy moderately well,[11],18.5%
same,patients who tolerated CLT therapy well,[11],64%
same,LD50,[12],"700-1,000 mg/Kg"
same,effect on intracellular IL-8,[13]; PMA stimulation,no effect
same,decrease in IL-8 in Calu-3 cell lysates,"[13]; Salmonella stimulation, 30 μM test compound, 5 hours",virtually no decrease
same,IL-8 secretion,[14],inhibited completely
c1c[nH]cn1 [imidazole],inhibition of secreted IL-8,[2],Considerably less inhibition
OC(Cn1cncn1)(Cn1cncn1)c1ccc(F)cc1F [fluconazole],inhibition of secreted IL-8,[2],Considerably less inhibition
Cc1ncc([N+](=O)[O-])n1CCO [metronidazole],inhibition of PMN transmigration,"[9]; PMN's and T84 cells incubated with 30 μM of study drug for 30 minutes, FIG. 2B",30-40%
CCC(C)n1ncn(-c2ccc(N3CCN(c4ccc(OCC5COC(Cn6cncn6)(c6ccc(Cl)cc6Cl)O5)cc4)CC3)cc2)c1=O (stereo not shown) [itraconazole],inhibition of secreted IL-8,[2],No inhibition
C[C@]12C=CC(=O)C=C1CC[C@@H]1[C@@H]2C(=O)C[C@@]2(C)[C@H]1CC[C@]2(O)C(=O)CO [prednisone],attenuation of PMN transepithelial migration,[9]; [16],no attenuation

# — patent US9072728B2, “Treatment of severe distal colitis” (priority 2003, dated 2015)
